Results: ChEMBL document CHEMBL4765227, “Hit to lead optimization of a series of N-[4-(1,3-benzothiazol-2-yl)phenyl]acetamides as monoacylglycerol lipase inhibitors with potential anticancer activity” (Eur J Med Chem, 2016)

Legend:
Format in all cases: functional
CCRF-CEM = assay: Growth inhibition of human CCRF-CEM cells at 10 uM incubated for 48 hrs by sulforhodamine B assay relative to control; conditions: read-out: GI
HOP-62 = assay: Growth inhibition of human HOP-62 cells at 10 uM incubated for 48 hrs by sulforhodamine B assay relative to control; conditions: read-out: GI
HOP-92 [1] = assay: Growth inhibition of human HOP-92 cells at 10 uM incubated for 48 hrs by sulforhodamine B assay relative to control; conditions: read-out: GI
NCI-H460 = assay: Growth inhibition of human NCI-H460 cells at 10 uM incubated for 48 hrs by sulforhodamine B assay relative to control; conditions: read-out: GI
COLO 205 = assay: Growth inhibition of human COLO 205 cells at 10 uM incubated for 48 hrs by sulforhodamine B assay relative to control; conditions: read-out: GI
HCT-116 = assay: Growth inhibition of human HCT-116 cells at 10 uM incubated for 48 hrs by sulforhodamine B assay relative to control; conditions: read-out: GI
HCT-15 = assay: Growth inhibition of human HCT-15 cells at 10 uM incubated for 48 hrs by sulforhodamine B assay relative to control; conditions: read-out: GI
SW-620 = assay: Growth inhibition of human SW-620 cells at 10 uM incubated for 48 hrs by sulforhodamine B assay relative to control; conditions: read-out: GI
SNB-75 = assay: Growth inhibition of human SNB-75 cells at 10 uM incubated for 48 hrs by sulforhodamine B assay relative to control; conditions: read-out: GI
LOX IMVI [2] = assay: Growth inhibition of human LOX IMVI cells at 10 uM incubated for 48 hrs by sulforhodamine B assay relative to control; conditions: read-out: GI
SK-MEL-2 = assay: Growth inhibition of human SK-MEL-2 cells at 10 uM incubated for 48 hrs by sulforhodamine B assay relative to control; conditions: read-out: GI
SK-MEL-28 = assay: Growth inhibition of human SK-MEL-28 cells at 10 uM incubated for 48 hrs by sulforhodamine B assay relative to control; conditions: read-out: GI
NCI/ADR-RES = assay: Growth inhibition of human NCI/ADR-RES cells at 10 uM incubated for 48 hrs by sulforhodamine B assay relative to control; conditions: read-out: GI
CAKI-1 [3] = assay: Growth inhibition of human CAKI-1 cells at 10 uM incubated for 48 hrs by sulforhodamine B assay relative to control; conditions: read-out: GI
K562 = assay: Growth inhibition of human K562 cells incubated for 48 hrs by sulforhodamine B assay
EKVX [4] = assay: Growth inhibition of human EKVX cells incubated for 48 hrs by sulforhodamine B assay
HOP-92 [5] = assay: Growth inhibition of human HOP-92 cells incubated for 48 hrs by sulforhodamine B assay
NCI-H226 = assay: Growth inhibition of human NCI-H226 cells incubated for 48 hrs by sulforhodamine B assay
NCI-H23 = assay: Growth inhibition of human NCI-H23 cells incubated for 48 hrs by sulforhodamine B assay
SF-268 = assay: Growth inhibition of human SF-268 cells incubated for 48 hrs by sulforhodamine B assay
LOX IMVI [6] = assay: Growth inhibition of human LOX IMVI cells incubated for 48 hrs by sulforhodamine B assay
Malme-3M = assay: Growth inhibition of human Malme-3M cells incubated for 48 hrs by sulforhodamine B assay
M14 = assay: Growth inhibition of human M14 cells incubated for 48 hrs by sulforhodamine B assay
MDA-MB-435 = assay: Growth inhibition of human MDA-MB-435 cells incubated for 48 hrs by sulforhodamine B assay
SK-MEL-5 = assay: Growth inhibition of human SK-MEL-5 cells incubated for 48 hrs by sulforhodamine B assay
IGROV-1 = assay: Growth inhibition of human IGROV-1 cells incubated for 48 hrs by sulforhodamine B assay
SK-OV-3 = assay: Growth inhibition of human SK-OV-3 cells incubated for 48 hrs by sulforhodamine B assay
ACHN = assay: Growth inhibition of human ACHN cells incubated for 48 hrs by sulforhodamine B assay
CAKI-1 [7] = assay: Growth inhibition of human CAKI-1 cells incubated for 48 hrs by sulforhodamine B assay
DU-145 = assay: Growth inhibition of human DU-145 cells incubated for 48 hrs by sulforhodamine B assay
MCF7 = assay: Growth inhibition of human MCF7 cells incubated for 48 hrs by sulforhodamine B assay
MDA-MB-231 = assay: Growth inhibition of human MDA-MB-231 cells incubated for 48 hrs by sulforhodamine B assay
MDA-MB-468 = assay: Growth inhibition of human MDA-MB-468 cells incubated for 48 hrs by sulforhodamine B assay
EKVX [8] = assay: Growth inhibition of human EKVX cells at 10 uM incubated for 48 hrs by sulforhodamine B assay relative to control; conditions: read-out: GI
A498 = assay: Growth inhibition of human A498 cells at 10 uM incubated for 48 hrs by sulforhodamine B assay relative to control; conditions: read-out: GI
[9] = read-out: LC50 (the source's name)

## O=C(CNc1ccc(Cl)cc1)Nc1ccc(-c2nc3ccccc3s2)cc1
CCRF-CEM
  inhibition of growth at 10 µM: 96.8%
HOP-62
  inhibition of growth at 10 µM: -16.2%
HOP-92 [1]
  inhibition of growth at 10 µM: 2.16%
NCI-H460
  inhibition of growth at 10 µM: 12.9%
COLO 205
  inhibition of growth at 10 µM: 53%
HCT-116
  inhibition of growth at 10 µM: 76.7%
HCT-15
  inhibition of growth at 10 µM: 114%
SW-620
  inhibition of growth at 10 µM: 77.4%
SNB-75
  inhibition of growth at 10 µM: 39.9%
LOX IMVI [2]
  inhibition of growth at 10 µM: 141%
SK-MEL-2
  inhibition of growth at 10 µM: 21.5%
SK-MEL-28
  inhibition of growth at 10 µM: 0.54%
NCI/ADR-RES
  inhibition of growth at 10 µM: 35.5%
CAKI-1 [3]
  inhibition of growth at 10 µM: 79.8%
K562
  GI50: 2.95 µM
  LC50: > 100 µM
  TGI: > 100 µM
EKVX [4]
  GI50: 4.36 µM
  LC50: 66.9 µM
  TGI: 19.1 µM
HOP-92 [5]
  GI50: 2.4 µM
  LC50 (concentration killing 50% of cells): 37.8 µM
  TGI: 8.11 µM
NCI-H226
  GI50: 2.25 µM
  LC50: > 100 µM
  TGI: 7.1 µM
NCI-H23
  GI50: 2.04 µM
  LC50 (lethal concentration 50%): 21.6 µM
  TGI: 4.7 µM
SF-268
  GI50: 2 µM
  LC50: 15 µM
  TGI: 4.76 µM
LOX IMVI [6]
  GI50: 1.29 µM
  LC50: 5.74 µM
  TGI: 2.72 µM
Malme-3M
  GI50: 1.98 µM
  TGI: 4.22 µM
Malme-3M; [9]
  CC50: 8.99 µM
M14
  GI50: 1.78 µM
  TGI: 3.84 µM
M14; [9]
  CC50: 8.28 µM
MDA-MB-435
  GI50: 2.66 µM
  LC50: 42.7 µM
  TGI: 11.1 µM
SK-MEL-5
  GI50: 1.57 µM
  LC50 (50% lethal concentration): 6.53 µM
  TGI: 3.2 µM
IGROV-1
  GI50: 1.9 µM
  TGI: 4.27 µM
IGROV-1; [9]
  CC50: 9.59 µM
SK-OV-3
  GI50: 4.57 µM
  LC50 (concentration killing 50% of cells): > 100 µM
  TGI: 61.8 µM
ACHN
  GI50: 2.31 µM
  LC50: 18.2 µM
  TGI: 5.57 µM
CAKI-1 [7]
  GI50: 2.74 µM
  LC50 (concentration killing 50% of cells): 34.4 µM
  TGI: 10.5 µM
DU-145
  GI50: 3.34 µM
  LC50 (concentration killing 50% of cells): 32.1 µM
  TGI: 10.3 µM
MCF7
  GI50: 0.0325 µM
  LC50: > 100 µM
  TGI: 2.5 µM
MDA-MB-231
  GI50: 2.86 µM
  LC50 (concentration causing 50% cell kill): > 100 µM
  TGI: 10.3 µM
MDA-MB-468
  GI50: 0.0238 µM
  TGI: 0.353 µM
MDA-MB-468; [9]
  CC50: 6.19 µM

## O=C(CNc1nc2ccccc2s1)Nc1ccc(-c2nc3ccccc3s2)cc1
CCRF-CEM
  inhibition of growth at 10 µM: -10.5%
EKVX [8]
  inhibition of growth at 10 µM: -9.9%
HOP-62
  inhibition of growth at 10 µM: -4.25%
HOP-92 [1]
  inhibition of growth at 10 µM: 0.18%
NCI-H460
  inhibition of growth at 10 µM: 0.21%
COLO 205
  inhibition of growth at 10 µM: -11.7%
HCT-116
  inhibition of growth at 10 µM: 1.08%
HCT-15
  inhibition of growth at 10 µM: -4.63%
SW-620
  inhibition of growth at 10 µM: -8.73%
SNB-75
  inhibition of growth at 10 µM: 1.04%
LOX IMVI [2]
  inhibition of growth at 10 µM: 24.2%
SK-MEL-28
  inhibition of growth at 10 µM: -13.3%
NCI/ADR-RES
  inhibition of growth at 10 µM: -1.94%
A498
  inhibition of growth at 10 µM: 6.15%
CAKI-1 [3]
  inhibition of growth at 10 µM: -0.18%
